Measured values as given in US20030215462A1, “Use of UGT inhibitors to increase bioavailability” (priority 2001, published 2003).
Several values for one entry are separate records, joined by “and”; a condition that tells them apart may be missing. Equal entries are not always repeated.

How the values were obtained:
[1] = molecular target: T1, UGT1A3 (Homo sapiens, UniProt P35503); assay: Inhibition of raloxifene glucuronidation by recombinant UGT1A3 Supersomes; details: for activity at 15 min, 10 µM / activity at 15 min, 25 µM / activity at 15 min, 50 µM: human; for activity at 15 min, 10 µM: inhibitor 10 μM
T1 sequence (P35503 29-534): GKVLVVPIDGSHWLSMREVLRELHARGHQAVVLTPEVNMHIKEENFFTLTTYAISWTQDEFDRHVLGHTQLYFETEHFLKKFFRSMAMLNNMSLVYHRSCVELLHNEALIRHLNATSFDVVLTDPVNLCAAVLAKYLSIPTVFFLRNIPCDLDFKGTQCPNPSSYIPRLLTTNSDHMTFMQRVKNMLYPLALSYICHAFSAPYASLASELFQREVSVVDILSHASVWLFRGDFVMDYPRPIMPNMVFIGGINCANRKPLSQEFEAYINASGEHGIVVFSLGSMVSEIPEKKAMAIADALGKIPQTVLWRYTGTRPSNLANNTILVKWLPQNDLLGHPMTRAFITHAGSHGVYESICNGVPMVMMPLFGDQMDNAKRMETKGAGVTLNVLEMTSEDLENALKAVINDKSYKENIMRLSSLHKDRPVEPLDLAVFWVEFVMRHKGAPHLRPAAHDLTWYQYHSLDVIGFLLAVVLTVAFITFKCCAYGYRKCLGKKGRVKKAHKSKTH
Procedure: Compounds were eluted using a binary solvent gradient system. Solvent A was water brought to pH 8 with NH4OH. Solvent B was methanol. Solvent flow rate was 1 ml/min and the column temperature was maintained at 50° C. Detection was at 280 nm. […] The system was then returned to the initial conditions and equilibrated for 3 min.

[2] = tested on: T2, UGT enzymes of human liver microsomes; assay: Inhibition of 7-HFC glucuronidation in human liver microsomes; format: biochemical; details: for % of control metabolism (SD, n = 3), 7-HFC glucuronidation: human liver microsomes 100 μg/ml
T2 construct: percentage of control metabolism, 7-HFC glucuronidation; percentage of control metabolism, 7-HFC glucuronidation

[3] = tested on: UGT enzymes of human liver microsomes; assay: Inhibition of estradiol (E2) glucuronidation in human liver microsomes; format: biochemical; details: liver 062101; E2 50 μM; inhibitor 50 μM
Source text: (§1) Compounds were eluted using a binary solvent gradient system where solvent A was dilute phosphoric acid (pH 3) and solvent B was 80:20 acetonitrile-methanol. […] Detection was at 280 nm.

[4] = tested on: T3, UGT enzymes of human liver microsomes; assay: as above; format: biochemical; details: liver 032101, E2 50 μM
T3 construct: residual metabolism (% of control), E2-3-β-D-glucuronide; other: liver 032101; residual metabolism (% of control), E2-3-β-D-glucuronide
Source text: as §1

[5] = tested on: T4, UGT enzymes of human liver microsomes; assay: as above; format: biochemical; details: liver 032101, E2 50 μM
T4 construct: residual metabolism (% of control), E2-17-β-D-glucuronide; other: liver 032101; residual metabolism (% of control), E2-17-β-D-glucuronide
Source text: as §1

[6] = inhibitor 25 μM, raloxifene 50 μM, 250 μg/ml Supersomes, 1 mM UDPGA, 15 min
[7] = inhibitor 50 μM, raloxifene 50 μM, 250 μg/ml Supersomes, 1 mM UDPGA, 15 min
[8] = inhibitor 100 μM, 7-HFC 50 μM, 15 min
[9] = inhibitor 200 μM, 7-HFC 50 μM, 15 min
[10] = inhibitor 500 μM, 7-HFC 50 μM, 15 min

O=C(O[C@@H]1Cc2c(O)cc(O)cc2O[C@@H]1c1cc(O)c(O)c(O)c1)c1cc(O)c(O)c(O)c1 [Epigallocatechin gallate]
Inhibition of raloxifene glucuronidation, G1, UGT1A3 [1, 6]: 69 (2)
Inhibition of raloxifene glucuronidation, G1, UGT1A3 [1, 7]: 26 (2)
Inhibition of raloxifene glucuronidation, G2, UGT1A3 [1, 6]: 64 (3)
Inhibition of raloxifene glucuronidation, G2, UGT1A3 [1, 7]: 25 (1)
% of control metabolism, raloxifene G1 ([1]; UGT1A3, inhibitor 25 μM): 69 (2) %
% of control metabolism, raloxifene G2 ([1]; UGT1A3, inhibitor 25 μM): 64 (3) %
% of control metabolism, raloxifene G1 ([1]; UGT1A3, inhibitor 50 μM): 26 (2) %
% of control metabolism, raloxifene G2 ([1]; UGT1A3, inhibitor 50 μM): 25 (1) %
percentage of control metabolism, 7-HFC glucuronidation ([2]; inhibitor 100 μM): 67 (1) %
% of control metabolism (SD, n = 3), 7-HFC glucuronidation [2, 8]: 67 (1) %
percentage of control metabolism, 7-HFC glucuronidation ([2]; inhibitor 200 μM): 37 (2) %
% of control metabolism (SD, n = 3), 7-HFC glucuronidation [2, 9]: 37 (2) %
percentage of control metabolism, 7-HFC glucuronidation ([2]; inhibitor 500 μM): 5 (1) %
% of control metabolism (SD, n = 3), 7-HFC glucuronidation [2, 10]: 5 (1) %
residual metabolism (% of control), E2-3-β-D-glucuronide [3]: 45 (2) %
residual metabolism (% of control), E2-17-β-D-glucuronide [3]: 70 (1) %
residual metabolism (% of control), E2-3-β-D-glucuronide ([4]; inhibitor 50 μM): 46 (1) %
residual metabolism (% of control), E2-17-β-D-glucuronide ([5]; inhibitor 50 μM): 82 (2) %

CCCCCCCCOC(=O)c1cc(O)c(O)c(O)c1 [Octyl gallate]
inhibition of raloxifene glucuronidation, in words ([1]; UGT1A3): excellent inhibitor
activity at 15 min, 10 µM ([1]; Supersomes with recombinant human UGT1A3, pH 7.5, probe raloxifene 50 μM, formation of glucuronide G1, % of control metabolism, raloxifene G1, UGT1A3): 61%
activity at 15 min, 25 µM ([1]; Supersomes with recombinant human UGT1A3, pH 7.5, probe raloxifene 50 μM, formation of glucuronide G1, % of control metabolism, raloxifene G1, UGT1A3, inhibitor 25 μM): 28%
activity at 15 min, 50 µM ([1]; Supersomes with recombinant human UGT1A3, pH 7.5, probe raloxifene 50 μM, formation of glucuronide G1, % of control metabolism, raloxifene G1, UGT1A3, inhibitor 50 μM): 12%
activity at 15 min, 10 µM ([1]; Supersomes with recombinant human UGT1A3, pH 7.5, probe raloxifene 50 μM, formation of glucuronide G2, % of control metabolism, raloxifene G2, UGT1A3): 60%
activity at 15 min, 25 µM ([1]; Supersomes with recombinant human UGT1A3, pH 7.5, probe raloxifene 50 μM, formation of glucuronide G2, % of control metabolism, raloxifene G2, UGT1A3, inhibitor 25 μM): 31%
activity at 15 min, 50 µM ([1]; Supersomes with recombinant human UGT1A3, pH 7.5, probe raloxifene 50 μM, formation of glucuronide G2, % of control metabolism, raloxifene G2, UGT1A3, inhibitor 50 μM): 13%
activity at 15 min, 10 µM ([1]; recombinant UGT1A3 Supersomes, pH 7.5, probe raloxifene 50 μM (formation of glucuronide G1), Inhibition of raloxifene glucuronidation, G1, UGT1A3, G1, raloxifene 50 μM, 250 μg/ml Supersomes, 1 mM UDPGA, 15 min): 61%
activity at 15 min, 25 µM ([1]; recombinant UGT1A3 Supersomes, pH 7.5, probe raloxifene 50 μM (formation of glucuronide G1), Inhibition of raloxifene glucuronidation, G1, UGT1A3, G1, inhibitor 25 μM, raloxifene 50 μM, 250 μg/ml Supersomes, 1 mM UDPGA, 15 min): 28%
activity at 15 min, 50 µM ([1]; recombinant UGT1A3 Supersomes, pH 7.5, probe raloxifene 50 μM (formation of glucuronide G1), Inhibition of raloxifene glucuronidation, G1, UGT1A3, G1, inhibitor 50 μM, raloxifene 50 μM, 250 μg/ml Supersomes, 1 mM UDPGA, 15 min): 12%
activity at 15 min, 10 µM ([1]; recombinant UGT1A3 Supersomes, pH 7.5, probe raloxifene 50 μM (formation of glucuronide G2), Inhibition of raloxifene glucuronidation, G2, UGT1A3, G2, raloxifene 50 μM, 250 μg/ml Supersomes, 1 mM UDPGA, 15 min): 60%
activity at 15 min, 25 µM ([1]; recombinant UGT1A3 Supersomes, pH 7.5, probe raloxifene 50 μM (formation of glucuronide G2), Inhibition of raloxifene glucuronidation, G2, UGT1A3, G2, inhibitor 25 μM, raloxifene 50 μM, 250 μg/ml Supersomes, 1 mM UDPGA, 15 min): 31%
activity at 15 min, 50 µM ([1]; recombinant UGT1A3 Supersomes, pH 7.5, probe raloxifene 50 μM (formation of glucuronide G2), Inhibition of raloxifene glucuronidation, G2, UGT1A3, G2, inhibitor 50 μM, raloxifene 50 μM, 250 μg/ml Supersomes, 1 mM UDPGA, 15 min): 13%
IC50 ([2]; 7-HFC 50 μM, 1 mM UDPGA, 15 min): ~75 µM
percentage of control metabolism, 7-HFC glucuronidation ([2]; inhibitor 25 μM): 86 (1) %
% of control metabolism (SD, n = 3), 7-HFC glucuronidation ([2]; inhibitor 25 μM, 7-HFC 50 μM, 15 min): 86 (1) %
percentage of control metabolism, 7-HFC glucuronidation ([2]; inhibitor 50 μM): 65 (0) %
% of control metabolism (SD, n = 3), 7-HFC glucuronidation ([2]; inhibitor 50 μM, 7-HFC 50 μM, 15 min): 65 (0) %
percentage of control metabolism, 7-HFC glucuronidation ([2]; inhibitor 100 μM): 26 (1) % and 29 (1) %
% of control metabolism (SD, n = 3), 7-HFC glucuronidation [2, 8]: 26 (1), % and 29 (1) %
percentage of control metabolism, 7-HFC glucuronidation ([2]; inhibitor 200 μM): 6 (0) %
% of control metabolism (SD, n = 3), 7-HFC glucuronidation [2, 9]: 6 (0) %
percentage of control metabolism, 7-HFC glucuronidation ([2]; inhibitor 500 μM): 0.1 (0.1) %
% of control metabolism (SD, n = 3), 7-HFC glucuronidation [2, 10]: 0.1 (0.1) %
residual metabolism (% of control), E2-3-β-D-glucuronide ([4]; inhibitor 50 μM): 53 (1) %
residual metabolism (% of control), E2-3-β-D-glucuronide ([4]; inhibitor 100 μM): 33 (2) %
residual metabolism (% of control), E2-17-β-D-glucuronide ([5]; inhibitor 50 μM): 88 (1) %
residual metabolism (% of control), E2-17-β-D-glucuronide ([5]; inhibitor 100 μM): 74 (2) %
